For this assay, the target named is recombinant human SAE enzyme (Homo sapiens (Human), UniProt Q9UBT2). Description: SAE HTRF enzyme assay. The format is biochemical. To be noted: for inhibition at 0.111 µM: read-out: Percent Inhibition. Put shortly: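 First, recombinant human SAE (0.11 nM) transfers Sumo-Flag onto Ubc9-GST using 0.5 μM ATP for 105 min at 24° C. Next, EDTA-containing detection buffer with labelled anti-Flag and anti-GST antibodies is added for 2 h. Finally, FRET is quantified and percent inhibition or IC50 derived.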

Setting [1] is: SAE inhibition at compound concentration 0.111 μM.
Where [2] appears, read: SAE inhibition, class symbols, legend in nM.

Experimental findings from patent US10780090B2, “Heteroaryl compounds useful as inhibitors of SUMO activating enzyme” (Millennium Pharmaceuticals, Inc., priority 2014, dated 2020) are described below.

recombinant human SAE enzyme, sequence (Q9UBT2 whole entry): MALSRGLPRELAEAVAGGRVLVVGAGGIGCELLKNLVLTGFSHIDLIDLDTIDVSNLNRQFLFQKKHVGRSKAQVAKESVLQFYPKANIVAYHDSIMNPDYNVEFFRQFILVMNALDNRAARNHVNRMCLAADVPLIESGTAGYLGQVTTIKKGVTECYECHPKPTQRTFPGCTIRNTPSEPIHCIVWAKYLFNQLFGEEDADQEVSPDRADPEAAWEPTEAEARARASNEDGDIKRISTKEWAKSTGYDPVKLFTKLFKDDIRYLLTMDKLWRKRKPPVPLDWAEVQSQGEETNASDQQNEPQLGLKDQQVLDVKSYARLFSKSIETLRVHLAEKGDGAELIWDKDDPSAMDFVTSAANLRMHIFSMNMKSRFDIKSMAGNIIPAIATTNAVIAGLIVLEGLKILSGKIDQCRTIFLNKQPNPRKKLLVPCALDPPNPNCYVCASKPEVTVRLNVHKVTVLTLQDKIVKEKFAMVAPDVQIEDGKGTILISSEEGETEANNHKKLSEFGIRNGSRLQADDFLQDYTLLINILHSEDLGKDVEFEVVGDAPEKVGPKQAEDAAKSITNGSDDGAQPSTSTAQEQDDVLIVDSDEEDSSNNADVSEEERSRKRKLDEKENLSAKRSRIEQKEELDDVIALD
recombinant human SAE enzyme, sequence (Q9UBE0 whole entry partner): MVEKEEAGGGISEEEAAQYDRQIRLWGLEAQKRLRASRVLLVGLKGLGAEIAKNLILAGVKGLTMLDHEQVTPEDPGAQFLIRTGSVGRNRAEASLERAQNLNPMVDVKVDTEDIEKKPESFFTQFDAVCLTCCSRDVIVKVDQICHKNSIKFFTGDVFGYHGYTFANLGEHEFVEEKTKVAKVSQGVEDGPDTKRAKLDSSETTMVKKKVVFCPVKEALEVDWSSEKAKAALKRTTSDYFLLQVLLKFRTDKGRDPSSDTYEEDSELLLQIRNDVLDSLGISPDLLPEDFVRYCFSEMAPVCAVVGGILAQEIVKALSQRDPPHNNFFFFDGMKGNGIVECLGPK

On to `Cc1sc(C(=O)c2cncnc2N[C@@H]2C[C@H](COS(N)(=O)=O)[C@@H](O)C2)nc1[C@H](O)c1cccc(Cl)c1` (single isomer, unassigned) [I-355b, [(1R,2S,4R)-4-{[5-({4-[(R)-(3-chlorophenyl)(hydroxy)methyl]-5-methyl-1,3-thiazol-2-yl}carbonyl)pyrimidin-4-yl]amino}-2-hydroxycyclopentyl]methyl sulfamate or [(1R,2S,4R)-4-{[5-({4-[(S)-(3-chlorophenyl)(hydroxy)methyl]-5-methyl-1,3-thiazol-2-yl}carbonyl)pyrimidin-4-yl]amino}-2-hydroxycyclopentyl]methyl sulfamate], for which the “Percent Inhibition” value under setting [1] was 71%. For the same compound, the IC50 under setting [2] lay within 10 to 100 nM. Take `CC(O)(c1cccc(Cl)c1)c1csc(C(=O)c2cncnc2N[C@@H]2C[C@H](COS(N)(=O)=O)[C@@H](O)C2)c1` (single isomer, unassigned) [I-5b, [(1R,2S,4R)-4-{[5-({4-[(1R)-1-(3-chlorophenyl)-1-hydroxyethyl]-2-thienyl}carbonyl)pyrimidin-4-yl]amino}-2-hydroxycyclopentyl]methyl sulfamate or [(1R,2S,4R)-4-{[5-({4-[(1S)-1-(3-chlorophenyl)-1-hydroxyethyl]-2-thienyl}carbonyl)pyrimidin-4-yl]amino}-2-hydroxycyclopentyl]methyl sulfamate]: for the setting “Concentration 0.111 μM”, the “Percent Inhibition” value is listed as 100. Further, for the setting “class symbols A/B/C”, the 50% inhibitory concentration (IC50) was less than 10 nM. On to `NS(=O)(=O)OC[C@H]1C[C@@H](Nc2ncncc2C(=O)c2cc([C@@H]3OCCc4cc(F)c(F)cc43)c(Cl)s2)C[C@@H]1O` (single isomer, unassigned) [I-290a, [(1R,2S,4R)-4-{[5-({5-chloro-4-[(1R)-6,7-difluoro-3,4-dihydro-1H-isochromen-1-yl]-2-thienyl}carbonyl)pyrimidin-4-yl]amino}-2-hydroxycyclopentyl]methyl sulfamate or [(1R,2S,4R)-4-{[5-({5-chloro-4-[(1S)-6,7-difluoro-3,4-dihydro-1H-isochromen-1-yl]-2-thienyl}carbonyl)pyrimidin-4-yl]amino}-2-hydroxycyclopentyl]methyl sulfamate], for which the “Percent Inhibition” value under setting [1] is given as 62%. In addition, the concentration for half-maximal inhibition (IC50) under setting [2] is 10 to 100 nM. Turning to `NS(=O)(=O)OC[C@H]1C[C@@H](Nc2ncncc2C(=O)c2cc(Cc3ccccc3)c(Cl)s2)C[C@@H]1O` [I-96, [(1R,2S,4R)-4-({5-[(4-benzyl-5-chloro-2-thienyl)carbonyl]pyrimidin-4-yl}amino)-2-hydroxycyclopentyl]methyl sulfamate], the inhibition at 0.111 µM (Concentration 0.111 μM) amounted to 97%. For `Cc1sc(C(=O)c2cncnc2N[C@@H]2C[C@H](COS(N)(=O)=O)[C@@H](O)C2)cc1[C@H](N)c1cccc(Cl)c1` (single isomer, unassigned) [I-6a, [(1R,2S,4R)-4-{[5-({4-[(R)-amino(3-chlorophenyl)methyl]-5-methyl-2-thienyl}carbonyl)pyrimidin-4-yl]amino}-2-hydroxycyclopentyl]methyl sulfamate or [(1R,2S,4R)-4-{[5-({4-[(S)-amino(3-chlorophenyl)methyl]-5-methyl-2-thienyl}carbonyl)pyrimidin-4-yl]amino}-2-hydroxycyclopentyl]methyl sulfamate], the “Percent Inhibition” value (Concentration 0.111 μM) was 98. In addition, under “class symbols A/B/C”, the 50% inhibitory concentration (IC50) was less than 10 nM.

Take `NS(=O)(=O)OC[C@H]1C[C@@H](Nc2ncncc2C(=O)c2cc(Cc3cccc(Cl)c3)c([C@@H]3CCCO3)s2)C[C@@H]1O` (single isomer, unassigned) [I-41b, [(1R,2S,4R)-4-{[5-({4-(3-chlorobenzyl)-5-[(2S)-tetrahydrofuran-2-yl]-2-thienyl}carbonyl)pyrimidin-4-yl]amino}-2-hydroxycyclopentyl]methyl sulfamate or [(1R,2S,4R)-4-{[5-({4-(3-chlorobenzyl)-5-[(2R)-tetrahydrofuran-2-yl]-2-thienyl}carbonyl)pyrimidin-4-yl]amino}-2-hydroxycyclopentyl]methyl sulfamate]: where the note is “Concentration 0.111 μM”, the “Percent Inhibition” value was determined as 98. Further, the concentration for half-maximal inhibition (IC50) (class symbols A/B/C) is less than 10 nM. On the same counts, the results for `CN1Cc2ccc(Cl)cc2[C@@H]1c1csc(C(=O)c2cncnc2N[C@@H]2C[C@H](COS(N)(=O)=O)[C@@H](O)C2)c1` (single isomer, unassigned) [I-265a, [(1R,2S,4R)-4-{[5-({4-[(1R)-6-chloro-2-methyl-2,3-dihydro-1H-isoindol-1-yl]-2-thienyl}carbonyl)pyrimidin-4-yl]amino}-2-hydroxycyclopentyl]methyl sulfamate or [(1R,2S,4R)-4-{[5-({4-[(1S)-6-chloro-2-methyl-2,3-dihydro-1H-isoindol-1-yl]-2-thienyl}carbonyl)pyrimidin-4-yl]amino}-2-hydroxycyclopentyl]methyl sulfamate] are 99 and less than 10 nM. As to `CN1CCc2ccc(Cl)cc2[C@@H]1c1cc(C(=O)c2cncnc2N[C@@H]2C[C@H](COS(N)(=O)=O)[C@@H](O)C2)sc1Cl` (single isomer, unassigned) [I-311b, [(1R,2S,4R)-4-{[5-({5-chloro-4-[(1R)-7-chloro-2-methyl-1,2,3,4-tetrahydroisoquinolin-1-yl]-2-thienyl}carbonyl)pyrimidin-4-yl]amino}-2-hydroxycyclopentyl]methyl sulfamate or [(1R,2S,4R)-4-{[5-({5-chloro-4-[(1S)-7-chloro-2-methyl-1,2,3,4-tetrahydroisoquinolin-1-yl]-2-thienyl}carbonyl)pyrimidin-4-yl]amino}-2-hydroxycyclopentyl]methyl sulfamate], the “Percent Inhibition” value under setting [1] amounted to 96%. In addition, the 50% inhibitory concentration (IC50) under setting [2] is less than 10 nM. As for `NS(=O)(=O)OC[C@H]1C[C@@H](Nc2ncncc2C(=O)c2cc([C@@H]3NCCc4ccc(Cl)nc43)c(Cl)s2)C[C@@H]1O.NS(=O)(=O)OC[C@H]1C[C@@H](Nc2ncncc2C(=O)c2cc([C@H]3NCCc4ccc(Cl)nc43)c(Cl)s2)C[C@@H]1O` (mixture of isomers) [I-253, [(1R,2S,4R)-4-{[5-({5-chloro-4-[(8S)-2-chloro-5,6,7,8-tetrahydro-1,7-naphthyridin-8-yl]-2-thienyl}carbonyl)pyrimidin-4-yl]amino}-2-hydroxycyclopentyl]methyl sulfamate and [(1R,2S,4R)-4-{[5-({5-chloro-4-[(8R)-2-chloro-5,6,7,8-tetrahydro-1,7-naphthyridin-8-yl]-2-thienyl}carbonyl)pyrimidin-4-yl]amino}-2-hydroxycyclopentyl]methyl sulfamate], the “Percent Inhibition” value (Concentration 0.111 μM) came to 100. Moreover, the IC50 (class symbols A/B/C) is less than 10 nM. For the compound `NS(=O)(=O)OC[C@H]1C[C@@H](Nc2ncncc2C(=O)c2cc([C@H]3OCCc4c(Cl)cccc43)cs2)C[C@@H]1O` (mixture of isomers) [I-301, [(1R,2S,4R)-4-{[5-({4-[(1R)-5-chloro-3,4-dihydro-1H-isochromen-1-yl]-2-thienyl}carbonyl)pyrimidin-4-yl]amino}-2-hydroxycyclopentyl]methyl sulfamate and [(1R,2S,4R)-4-{[5-({4-[(1S)-5-chloro-3,4-dihydro-1H-isochromen-1-yl]-2-thienyl}carbonyl)pyrimidin-4-yl]amino}-2-hydroxycyclopentyl]methyl sulfamate], under setting [1], the “Percent Inhibition” value was 99%. Besides, the half-maximal inhibitory concentration (IC50) under setting [2] was less than 10 nM.

Consider `NS(=O)(=O)OC[C@H]1C[C@@H](Nc2ncncc2C(=O)c2cc(Cn3cnc(Br)c3)cs2)C[C@@H]1O` [I-243, [(1R,2S,4R)-4-{[5-({4-[(4-bromo-1H-imidazol-1-yl)methyl]-2-thienyl}carbonyl)pyrimidin-4-yl]amino}-2-hydroxycyclopentyl]methyl sulfamate], for which the inhibition at 0.111 µM (Concentration 0.111 μM) worked out at 19%. Further, the half-maximal inhibitory concentration (IC50) (class symbols A/B/C) lay in the range of 100 to 1000 nM.

For “[(1R,2S,4R)-4-{[5-({5-chloro-4-[(1S)-1,2,3,4-tetrahydroisoquinolin-1-yl]-2-thienyl}carbonyl)pyrimidin-4-yl]amino}-2-hydroxycyclopentyl]methyl sulfamate and [(1R,2S,4R)-4-{[5-({5-chloro-4-[(1R)-1,2,3,4-tetrahydroisoquinolin-1-yl]-2-thienyl}carbonyl)pyrimidin-4-yl]amino}-2-hydroxycyclopentyl]methyl sulfamate [I-279]”, under “Concentration 0.111 μM”, the “Percent Inhibition” value was 99. The half-maximal inhibitory concentration (IC50) (class symbols A/B/C) was less than 10 nM. Turning to `NS(=O)(=O)OC[C@H]1C[C@@H](Nc2ncncc2C(=O)c2cc(COc3ccc(Cl)cc3)cs2)C[C@@H]1O` [I-163, [(1R,2S,4R)-4-{[5-({4-[(4-chlorophenoxy)methyl]-2-thienyl}carbonyl)pyrimidin-4-yl]amino}-2-hydroxycyclopentyl]methyl sulfamate], the inhibition at 0.111 µM (Concentration 0.111 μM) came to 92%. Moreover, the IC50 (class symbols A/B/C) fell in the range of 10 to 100 nM. The matching figures for `COCc1ccc(C(=O)c2cncnc2N[C@@H]2C[C@H](COS(N)(=O)=O)[C@@H](O)C2)o1` [I-212, [(1R,2S,4R)-2-hydroxy-4-({5-[5-(methoxymethyl)-2-furoyl]pyrimidin-4-yl}amino)cyclopentyl]methyl sulfamate]: 43% and 100 to 1000 nM. With `Cc1cnn2c1[C@H](c1csc(C(=O)c3cncnc3N[C@@H]3C[C@H](COS(N)(=O)=O)[C@@H](O)C3)c1)OCC2` (mixture of isomers) [I-333, [(1R,2S,4R)-2-hydroxy-4-{[5-({4-[(4S)-3-methyl-6,7-dihydro-4H-pyrazolo[5,1-c][1,4]oxazin-4-yl]-2-thienyl}carbonyl)pyrimidin-4-yl]amino}cyclopentyl]methyl sulfamate and [(1R,2S,4R)-2-hydroxy-4-{[5-({4-[(4R)-3-methyl-6,7-dihydro-4H-pyrazolo[5,1-c][1,4]oxazin-4-yl]-2-thienyl}carbonyl)pyrimidin-4-yl]amino}cyclopentyl]methyl sulfamate], the “Percent Inhibition” value under setting [1] was determined as 15%. Also, the IC50 under setting [2] fell in the range of 100 to 1000 nM.
